Test results published in ChEMBL document CHEMBL1201862, “PubChem BioAssay data set” (2004).
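All cell lines were grown in 96-well plates and treated with compound for 48 hours. GI50 marks 50% less growth.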 Calls of active or inactive are those of the source. No stated cut-off is given here; in the data, active = GI50 up to about 1.1 µM and inactive = higher.

Key:
Assay in all cases: NCI tumour cell line growth inhibition, 48 h
[1] = tested on: 786-0
[2] = tested on: A498
[3] = tested on: A549
[4] = tested on: ACHN
[5] = tested on: BT-549
[6] = tested on: CAKI-1
[7] = tested on: COLO 205
[8] = tested on: EKVX
[9] = tested on: HCC 2998
[10] = tested on: HCT-116
[11] = tested on: HCT-15
[12] = tested on: HL-60
[13] = tested on: HOP-62
[14] = tested on: HOP-92
[15] = tested on: HT-29
[16] = tested on: Hs-578T
[17] = tested on: IGROV-1
[18] = tested on: LOX IMVI
[19] = tested on: M14
[20] = tested on: MCF7
[21] = tested on: MDA-MB-435
[22] = tested on: MDA-N
[23] = tested on: MOLT-4
[24] = tested on: Malme-3M
[25] = tested on: NCI-H23
[26] = tested on: NCI-H460
[27] = tested on: OVCAR-4
[28] = tested on: OVCAR-5
[29] = tested on: OVCAR-8
[30] = tested on: PC-3
[31] = tested on: RPMI-8226
[32] = tested on: SF-539
[33] = tested on: SK-MEL-28
[34] = tested on: SK-MEL-2
[35] = tested on: SK-MEL-5
[36] = tested on: SK-OV-3
[37] = tested on: SN12C
[38] = tested on: SNB-19
[39] = tested on: SW-620
[40] = tested on: TK-10
[41] = tested on: UACC-257
[42] = tested on: UACC-62
[43] = tested on: UO-31
[44] = tested on: K562
[45] = tested on: KM12
[46] = tested on: MDA-MB-231
[47] = tested on: NCI-H226
[48] = tested on: NCI-H522
[49] = tested on: NCI/ADR-RES
[50] = tested on: RXF 393
[51] = tested on: SF-268
[52] = tested on: SF-295
[53] = tested on: SNB-75
[54] = tested on: SR
[55] = tested on: U-251

SMILES: O=C(/C=C/c1ccccc1)c1cc(C(=O)/C=C/c2ccccc2)c(O)cc1O
- GI50 [1]: > 100 µM (inactive)
- GI50 [2]: 31.9 µM (inactive)
- GI50 [3]: > 100 µM (inactive)
- GI50 [4]: 73.1 µM (inactive)
- GI50 [5]: > 100 µM (inactive)
- GI50 [6]: > 100 µM (inactive)
- GI50 [7]: > 100 µM (inactive)
- GI50 [8]: 18.7 µM (inactive)
- GI50 [9]: 88.3 µM (inactive)
- GI50 [10]: 60.1 µM (inactive)
- GI50 [11]: > 100 µM
- GI50 [12]: > 100 µM (inactive)
- GI50 [13]: > 100 µM (inactive)
- GI50 [14]: > 100 µM (inactive)
- GI50 [15]: > 100 µM (inactive)
- GI50 [16]: 26.4 µM (inactive)
- GI50 [17]: > 100 µM (inactive)
- GI50 [18]: > 100 µM (inactive)
- GI50 [19]: > 100 µM (inactive)
- GI50 [20]: 51.4 µM (inactive)
- GI50 [21]: > 100 µM (inactive)
- GI50 [22]: > 100 µM (inactive)
- GI50 [23]: > 100 µM (inactive)
- GI50 [24]: > 100 µM (inactive)
- GI50 [25]: > 100 µM (inactive)
- GI50 [26]: > 100 µM (inactive)
- GI50 [27]: > 10 µM (inactive)
- GI50 [28]: > 100 µM (inactive)
- GI50 [29]: > 100 µM (inactive)
- GI50 [30]: > 100 µM (inactive)
- GI50 [31]: 65.6 µM (inactive)
- GI50 [32]: 47.3 µM (inactive)
- GI50 [33]: 40.5 µM (inactive)
- GI50 [34]: > 100 µM (inactive)
- GI50 [35]: 69.3 µM (inactive)
- GI50 [36]: > 100 µM (inactive)
- GI50 [37]: > 100 µM (inactive)
- GI50 [38]: > 100 µM (inactive)
- GI50 [39]: > 100 µM (inactive)
- GI50 [40]: > 100 µM (inactive)
- GI50 [41]: > 100 µM (inactive)
- GI50 [42]: 49.8 µM (inactive)
- GI50 [43]: 41.3 µM (inactive)

SMILES: COc1ccc(-c2ncn(C[Si](C)(C)C)c2-c2ccc(OC)cc2)cc1
- GI50 [1]: 5.15 µM (inactive)
- GI50 [3]: 4.31 µM (inactive)
- GI50 [4]: 7.55 µM (inactive)
- GI50 [5]: 22.4 µM (inactive)
- GI50 [6]: 5.85 µM (inactive)
- GI50 [7]: 2.54 µM (inactive)
- GI50 [8]: 3.13 µM (inactive)
- GI50 [9]: 3.17 µM (inactive)
- GI50 [10]: 2.92 µM (inactive)
- GI50 [11]: 4.51 µM
- GI50 [12]: 1.72 µM (inactive)
- GI50 [13]: 12.6 µM (inactive)
- GI50 [14]: 4.7 µM (inactive)
- GI50 [15]: 2.84 µM (inactive)
- GI50 [16]: 12.5 µM (inactive)
- GI50 [17]: 6.21 µM (inactive)
- GI50 [44]: 0.472 µM (active)
- GI50 [45]: 4.92 µM (inactive)
- GI50 [18]: 4.89 µM (inactive)
- GI50 [19]: 3.59 µM (inactive)
- GI50 [20]: 8.59 µM (inactive)
- GI50 [46]: 12.9 µM (inactive)
- GI50 [21]: 3.73 µM (inactive)
- GI50 [22]: 3.1 µM (inactive)
- GI50 [23]: 0.863 µM (active)
- GI50 [24]: 10.4 µM (inactive)
- GI50 [47]: 4.8 µM (inactive)
- GI50 [25]: 3.87 µM (inactive)
- GI50 [26]: 3.77 µM (inactive)
- GI50 [48]: 4.28 µM (inactive)
- GI50 [49]: 5.08 µM (inactive)
- GI50 [27]: 7.82 µM (inactive)
- GI50 [28]: 5.02 µM (inactive)
- GI50 [29]: 7.06 µM (inactive)
- GI50 [30]: 4.63 µM (inactive)
- GI50 [31]: 1.69 µM (inactive)
- GI50 [50]: 6.25 µM (inactive)
- GI50 [51]: 12.1 µM (inactive)
- GI50 [52]: 4.24 µM (inactive)
- GI50 [32]: 10.5 µM (inactive)
- GI50 [33]: 2.33 µM (inactive)
- GI50 [34]: 7.08 µM (inactive)
- GI50 [35]: 2.54 µM (inactive)
- GI50 [36]: 20 µM (inactive)
- GI50 [37]: 11 µM (inactive)
- GI50 [38]: 7.64 µM (inactive)
- GI50 [53]: 13.1 µM (inactive)
- GI50 [54]: 6.19 µM (inactive)
- GI50 [39]: 3.05 µM (inactive)
- GI50 [40]: 7.24 µM (inactive)
- GI50 [55]: 6.9 µM (inactive)
- GI50 [41]: 4.93 µM (inactive)
- GI50 [42]: 3.2 µM (inactive)
- GI50 [43]: 2.28 µM (inactive)
